Test results: patent US10040839B2, “Insulin derivatives and the medical uses hereof” (Novo Nordisk A/S, priority 2014, dated 2018)

Columns and labels:
[1] = molecular target: T1, membrane-associated human IGF-1R (Homo sapiens, UniProt P08069); test: IGF-1 receptor affinity on membrane-associated receptors, SPA competition binding; settings: membrane-associated cloned human IGF-1R, % relative to human insulin
T1 construct: expressed in transfected cells; host or cells: BHK cells stably transfected with pZem219B vector (plasma membrane preparation)
T1 sequence (P08069 31-736 limits assumed): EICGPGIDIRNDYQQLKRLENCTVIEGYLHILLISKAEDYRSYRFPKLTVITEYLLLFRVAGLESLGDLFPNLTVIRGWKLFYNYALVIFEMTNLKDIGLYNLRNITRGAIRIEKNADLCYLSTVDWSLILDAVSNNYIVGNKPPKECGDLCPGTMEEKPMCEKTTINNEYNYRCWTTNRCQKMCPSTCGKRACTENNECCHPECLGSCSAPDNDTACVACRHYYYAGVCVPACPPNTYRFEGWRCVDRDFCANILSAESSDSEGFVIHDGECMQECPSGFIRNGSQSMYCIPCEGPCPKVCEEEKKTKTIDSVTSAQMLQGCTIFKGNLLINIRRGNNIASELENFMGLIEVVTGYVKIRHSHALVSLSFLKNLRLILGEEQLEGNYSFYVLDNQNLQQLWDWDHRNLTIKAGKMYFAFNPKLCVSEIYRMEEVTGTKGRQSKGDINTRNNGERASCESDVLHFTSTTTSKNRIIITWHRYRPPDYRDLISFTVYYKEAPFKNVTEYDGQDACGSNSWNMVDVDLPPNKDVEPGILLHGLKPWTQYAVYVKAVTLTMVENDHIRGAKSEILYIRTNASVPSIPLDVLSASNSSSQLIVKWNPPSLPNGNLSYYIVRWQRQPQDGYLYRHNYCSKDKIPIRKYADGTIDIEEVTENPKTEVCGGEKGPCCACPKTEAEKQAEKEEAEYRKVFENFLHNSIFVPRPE
T1 sequence (P08069 741-1367 partner limits assumed): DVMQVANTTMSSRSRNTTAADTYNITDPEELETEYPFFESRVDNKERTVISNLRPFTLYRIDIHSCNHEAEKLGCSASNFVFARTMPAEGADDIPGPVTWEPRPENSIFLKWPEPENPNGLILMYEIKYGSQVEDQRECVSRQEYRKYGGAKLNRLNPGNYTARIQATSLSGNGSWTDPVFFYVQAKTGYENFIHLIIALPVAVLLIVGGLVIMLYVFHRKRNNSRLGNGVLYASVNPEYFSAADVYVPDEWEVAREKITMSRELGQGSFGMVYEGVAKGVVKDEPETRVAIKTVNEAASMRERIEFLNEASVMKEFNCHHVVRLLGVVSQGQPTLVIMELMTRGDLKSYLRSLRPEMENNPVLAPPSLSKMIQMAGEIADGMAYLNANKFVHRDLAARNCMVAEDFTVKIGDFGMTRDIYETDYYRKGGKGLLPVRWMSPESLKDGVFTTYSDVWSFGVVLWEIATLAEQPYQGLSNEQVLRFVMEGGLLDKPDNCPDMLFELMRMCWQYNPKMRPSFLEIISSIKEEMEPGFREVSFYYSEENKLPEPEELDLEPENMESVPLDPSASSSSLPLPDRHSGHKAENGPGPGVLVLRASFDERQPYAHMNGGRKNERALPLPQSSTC
Procedure: (§1) Membrane-associated human IR and IGF-1R are purified from BHK cells stably transfected with the pZem219B vector containing either the human IR-A, IR-B or IGF-IR insert. BHK cells are harvested and homogenized in ice-cold buffer (25 mM HEPES pH 7.4, 25 mM CaCl2 and 1 mM MgCl2, 250 mg/L bacitracin, 0.1 mM Pefablock). […] The pellets are re-suspended in a minimal volume of buffer and drawn through a needle (size 23) three times before storage at −80° C. until usage.
(§2) The relative binding affinity for either of the membrane-associated human IR-A, IR-B or IGF-1R is determined by competition binding in a SPA setup. IR assays are performed in duplicate in 96-well OptiPlates (Perkin-Elmer Life Sciences). […] Assays are terminated by centrifugation of the plate at 2000 rpm for 2 minutes and bound radioactivity quantified by counting on a TopCount NXT (Perkin-Elmer Life Sciences).
(§3) IGF-1R assays are conducted essentially as for the IR binding assays except that membrane-associated IGF-1R and 50 pM [^125 I-Tyr31]-human IGF-1 were employed.

[2] = molecular target: T2, solubilised human IR-A (Homo sapiens, UniProt P06213); test: Insulin receptor affinity on solubilised receptors, SPA competition binding, 0% HSA; settings: solubilised cloned human insulin receptor A isoform, % relative to human insulin
T2 construct: made in house; host or cells: baby hamster kidney (BHK) cells overexpressing the IR-A holoreceptor
T2 sequence (P06213 28-746 isoform P06213-2 limits assumed): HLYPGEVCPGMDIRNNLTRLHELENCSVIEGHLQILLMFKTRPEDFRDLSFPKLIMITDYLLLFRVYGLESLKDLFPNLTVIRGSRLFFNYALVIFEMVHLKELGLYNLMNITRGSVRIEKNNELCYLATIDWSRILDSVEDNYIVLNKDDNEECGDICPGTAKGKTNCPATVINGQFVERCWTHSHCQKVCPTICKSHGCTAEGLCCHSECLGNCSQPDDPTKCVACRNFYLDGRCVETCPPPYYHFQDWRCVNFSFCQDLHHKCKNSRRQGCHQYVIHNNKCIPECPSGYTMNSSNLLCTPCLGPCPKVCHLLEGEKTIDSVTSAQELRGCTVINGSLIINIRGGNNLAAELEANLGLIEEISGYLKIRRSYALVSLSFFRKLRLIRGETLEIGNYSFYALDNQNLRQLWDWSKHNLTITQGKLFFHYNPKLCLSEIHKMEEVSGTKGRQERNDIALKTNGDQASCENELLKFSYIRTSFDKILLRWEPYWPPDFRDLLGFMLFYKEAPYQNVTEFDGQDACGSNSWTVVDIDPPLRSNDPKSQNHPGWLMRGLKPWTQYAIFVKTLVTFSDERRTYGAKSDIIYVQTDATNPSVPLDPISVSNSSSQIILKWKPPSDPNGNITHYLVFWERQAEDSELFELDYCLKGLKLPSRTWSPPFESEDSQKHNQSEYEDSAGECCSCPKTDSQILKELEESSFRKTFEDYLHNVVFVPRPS
T2 sequence (P06213 763-1382 partner limits assumed): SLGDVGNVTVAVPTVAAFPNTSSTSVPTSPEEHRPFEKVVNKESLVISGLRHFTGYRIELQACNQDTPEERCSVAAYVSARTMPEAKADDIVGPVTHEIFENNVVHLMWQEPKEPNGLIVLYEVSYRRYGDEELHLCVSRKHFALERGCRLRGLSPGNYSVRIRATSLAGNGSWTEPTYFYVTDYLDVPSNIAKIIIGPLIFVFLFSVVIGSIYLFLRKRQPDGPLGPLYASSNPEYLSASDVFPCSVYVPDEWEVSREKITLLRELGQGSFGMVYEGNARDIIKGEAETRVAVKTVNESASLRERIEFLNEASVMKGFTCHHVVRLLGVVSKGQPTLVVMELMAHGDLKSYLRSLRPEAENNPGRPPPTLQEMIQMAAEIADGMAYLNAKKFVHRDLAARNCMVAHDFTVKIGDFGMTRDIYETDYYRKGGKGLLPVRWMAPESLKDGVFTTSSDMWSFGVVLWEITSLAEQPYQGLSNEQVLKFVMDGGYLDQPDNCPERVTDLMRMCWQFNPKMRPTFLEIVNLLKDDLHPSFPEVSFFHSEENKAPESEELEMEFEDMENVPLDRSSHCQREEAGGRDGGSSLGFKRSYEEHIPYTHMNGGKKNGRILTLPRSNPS

[3] = molecular target: T3, membrane-associated human IR-A (Homo sapiens, UniProt P06213); test: Insulin receptor affinity on membrane-associated receptors, SPA competition binding
T3 construct: expressed in transfected cells; host or cells: BHK cells stably transfected with pZem219B vector (plasma membrane preparation)
T3 sequence (P06213 28-746 isoform P06213-2 limits assumed): as the sequence (P06213 28-746 isoform P06213-2 limits assumed) above
T3 sequence (P06213 763-1382 partner limits assumed): as the sequence (P06213 763-1382 partner limits assumed) above
Procedure: as §1, §2, §3

[4] = molecular target: T2, solubilised human IR-A; test: Insulin receptor affinity on solubilised receptors, SPA competition binding, binding buffer with […] HSA; settings: solubilised cloned human insulin receptor A isoform, % relative to human insulin

Relative IGF-1R affinity (@ 0.1% HSA) [1]: 546.4%
Relative IR-A affinity (@ 0% HSA) [2]: 241.7%
Relative IR-A affinity (@ 0.1% HSA) ([3]; membrane-associated cloned human IR-A, 0.1% HSA, % relative to human insulin): 117.3%
IR IGF1 ratio ([3]; ratio of IR-A to IGF-1R affinities from membrane-associated receptors): 0.21
Relative IR-A affinity (@ […] HSA) [4]: 117.9%
Substance: A22K(N(Eps)-Tetradecanedioyl-2×OEG), desB27, B29R, desB30 Human Insulin [Example 17]
